Where two headings read alike, the source gives them in different places.
Columns and labels:
[1] = In vivo pharmacokinetics after single intravenous injection in SD rats (plasma); details: rat, single IV 5 mg/kg; for Vd: iv, 5 mg/kg; for MRT last: read-out: MRT(0-t); for MRT inf: read-out: MRT(0-∞)
Procedure: 1. […] The mixture was stirred or sonicated until completely dissolved to obtain a clear solution at a concentration of 1 mg/mL for administration by intravenous injection.
2. An appropriate amount of compound 3 or compound 6 was accurately weighed, and an appropriate volume of 5% DMSO+20% PG+20% PEG400+55% PBS (pH 8.0) was added thereto. The mixture was stirred or sonicated until completely dissolved to obtain a clear solution at a concentration of 1 mg/mL for administration by intravenous administration.
SPF grade SD rats, source: animals were transferred from the laboratory animal reserve bank (999M-017), Shanghai Sippe-Bk Lab Animal Co., Ltd.
3 rats/time point was set, blood samples were collected from the first 3 rats in each group, and cerebrospinal fluid and brain tissue were collected from the last 3 rats in each group. Blood sample: before administration and 5 min, 0.25 h, 0.5 h, 1 h, 1.5 h, 2 h, 4 h, 6 h, 8 h, 12 h and 24 h after administration. Tissue sample: cerebrospinal fluid and brain tissue were collected 10 min after administration.
Blood sample: blood was collected via jugular vein or other suitable means, and about 0.20 mL of blood was collected from each rat and added into an EDTA-K2 anticoagulation tube, which was then placed on ice after collection and centrifuged within 2 h for plasma separation (centrifugation conditions: 6800 g, 6 min, 2-8° C.). The collected plasma samples were stored in a refrigerator at −70° C. before analysis, and the residual plasma samples after analysis were still stored in the refrigerator at −70° C. for subsequent processing according to the requirements of the sponsor.
The concentration of each test compound in the plasma and tissue samples was determined. The accuracy of quality control samples was evaluated while analyzing the samples, and more than 66% of the quality control samples were required to have an accuracy between 80% and 120%.
The pharmacokinetic parameters such as AUC(0-t), T½, Cmax, Tmax and MRT were calculated from plasma concentration data at different time points using WinNonlin.
When plasma drug concentration-time curves were plotted, BLQ was recorded as 0. When the pharmacokinetic parameters were calculated, the concentration before administration was calculated as 0; BLQ before Cmax (including “No peak”) was calculated as 0; and BLQ that occurs after Cmax (including “No peak”) was excluded from the calculation.

SUR1 receptor = SUR1 receptor (Homo sapiens (Human), UniProt Q09428); test: Binding activity for SUR1 receptor ([3H]-Glibenclamide displacement, SUR1 membrane); details: SUR1 membrane protein, [3H]-Glibenclamide 2 nM, 37° C. 1 h
Sequence of SUR1 receptor (Q09428 whole entry): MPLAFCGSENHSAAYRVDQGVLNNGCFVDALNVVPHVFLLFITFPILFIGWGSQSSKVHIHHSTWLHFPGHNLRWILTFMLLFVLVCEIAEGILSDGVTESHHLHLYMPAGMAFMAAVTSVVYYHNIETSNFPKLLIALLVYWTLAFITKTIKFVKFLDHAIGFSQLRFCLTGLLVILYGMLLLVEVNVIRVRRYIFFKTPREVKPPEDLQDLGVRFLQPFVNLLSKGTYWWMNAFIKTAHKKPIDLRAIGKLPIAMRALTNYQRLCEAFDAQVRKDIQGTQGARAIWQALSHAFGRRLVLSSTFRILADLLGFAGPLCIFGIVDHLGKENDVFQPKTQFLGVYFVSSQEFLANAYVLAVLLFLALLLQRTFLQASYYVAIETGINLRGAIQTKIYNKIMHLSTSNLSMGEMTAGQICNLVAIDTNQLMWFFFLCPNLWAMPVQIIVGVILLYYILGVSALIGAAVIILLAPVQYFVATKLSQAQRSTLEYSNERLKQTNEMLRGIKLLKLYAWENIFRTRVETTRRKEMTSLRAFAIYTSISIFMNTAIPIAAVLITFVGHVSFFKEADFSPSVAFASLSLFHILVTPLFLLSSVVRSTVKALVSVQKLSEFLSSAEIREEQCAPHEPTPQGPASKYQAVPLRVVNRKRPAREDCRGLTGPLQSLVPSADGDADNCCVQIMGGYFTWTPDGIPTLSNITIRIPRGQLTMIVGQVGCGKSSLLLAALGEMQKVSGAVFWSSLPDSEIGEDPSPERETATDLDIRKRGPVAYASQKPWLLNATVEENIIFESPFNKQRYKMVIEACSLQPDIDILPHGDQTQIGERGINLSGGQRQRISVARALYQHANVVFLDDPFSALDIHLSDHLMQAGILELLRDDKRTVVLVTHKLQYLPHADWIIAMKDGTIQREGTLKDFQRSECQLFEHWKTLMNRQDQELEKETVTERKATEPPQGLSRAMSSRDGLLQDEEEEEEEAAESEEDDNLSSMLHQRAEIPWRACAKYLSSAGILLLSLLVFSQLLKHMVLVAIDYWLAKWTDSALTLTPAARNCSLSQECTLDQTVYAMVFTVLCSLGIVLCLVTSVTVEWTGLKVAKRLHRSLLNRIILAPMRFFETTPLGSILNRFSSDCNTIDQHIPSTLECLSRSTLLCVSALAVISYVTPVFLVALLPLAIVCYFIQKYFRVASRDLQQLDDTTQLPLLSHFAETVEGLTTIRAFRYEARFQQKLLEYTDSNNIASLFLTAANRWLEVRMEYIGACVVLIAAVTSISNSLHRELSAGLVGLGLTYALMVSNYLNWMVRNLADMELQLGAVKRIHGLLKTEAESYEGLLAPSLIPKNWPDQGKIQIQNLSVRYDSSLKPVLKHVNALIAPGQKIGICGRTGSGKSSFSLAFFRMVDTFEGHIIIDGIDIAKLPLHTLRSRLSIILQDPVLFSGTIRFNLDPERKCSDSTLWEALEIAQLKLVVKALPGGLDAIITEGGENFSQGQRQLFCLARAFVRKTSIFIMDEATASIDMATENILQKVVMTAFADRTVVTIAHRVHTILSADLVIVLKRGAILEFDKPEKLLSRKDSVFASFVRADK
Procedure: The plate was incubated at 4° C. for 1 h. • f) The […]-96 GF/C and […]-96 GF/B plates were washed twice with Universal Harvester, each time with 50 mL of washing solution. • g) The SUR1 receptor reaction system was transferred to a […]-96 GF/B plate with Universal Harvester, and 900 μL of washing solution was added to each well to wash the GF/B plate 4 times. The washed […]-96 GF/B plate was dried in an oven at 55° C. for 10 min. • h) 40 μL of ULTIMA GOLD scintillation solution was added to each well, and the plate was read using Microbeta.

[2] = Sprague-Dawley (SD), read-out: Vss
[3] = Sprague-Dawley (SD), read-out: Vz

Compound	Vd [1, 2] [L/kg]	Vd [1, 3] [L/kg]	AUC(0-inf) ([1]; Sprague-Dawley (SD)) [ng·h/mL]	AUC(0-t) ([1]; Sprague-Dawley (SD)) [ng·h/mL]	Cmax ([1]; Sprague-Dawley (SD)) [ng/mL]	Tmax ([1]; Sprague-Dawley (SD)) [min]	half-life ([1]; Sprague-Dawley (SD)) [h]	MRT last ([1]; Sprague-Dawley (SD)) [h]	MRT inf ([1]; Sprague-Dawley (SD)) [h]	IC50 (SUR1 receptor) [nM]	Vd ([1]; SD, read-out: Vss) [L/kg]	Vd ([1]; SD, read-out: Vz) [L/kg]	AUC(0-inf) [1] [ng·h/mL]	AUC(0-t) [1] [ng·h/mL]	Cmax [1] [ng/mL]	Tmax [1] [min]	half-life [1] [h]	MRT last [1] [h]	MRT inf [1] [h]
O=C(NC1CCCCC1)NS(=O)(=O)c1ccc(CCNC(=O)c2cc(Cl)ccc2O)cc1 [Compound 1, 5-chloro-N-(4-(N-(cyclohexylcarbamoyl)sulfamoyl)phenethyl)-2-hydroxybenzamide]	0.219 ± 0.0263	1 ± 0.202	28700 ± 4700	28200	65000 ± 3630	6	3.9 ± 0.6	0.9 ± 0.3	1.2 ± 0.1	–	–	–	–	–	–	–	–	–	–
O=C(NC1CCCCC1)NS(=O)(=O)c1ccc(CCNC(=O)c2cc(Cl)ccc2OC(F)(F)F)cc1 [Compound 3, 5-chloro-N-(4-(N-(cyclohexylcarbamoyl)sulfamoyl)phenethyl)-2-(trifluoromethoxy)benzamide]	0.303 ± 0.0141	0.51 ± 0.0307	36400 ± 1170	35700 ± 1130	32800 ± 1530	6	2.6 ± 0.1	1.9 ± 0.1	2.2 ± 0.1	159	–	–	–	–	–	–	–	–	–
COc1ccc(Cl)cc1C(=O)NCCc1ccc(S(=O)(=O)NC(=O)N[C@H]2CC[C@H](O)CC2)cc1 [Compound 4, 5-chloro-N-(4-(N-(((1r,4r)-4-hydroxycyclohexyl)carbamoyl)sulfamoyl)phenethyl)-2-methoxybenzamide]	–	–	–	–	–	–	–	–	–	–	0.119 ± 0.0123	1.66 ± 1.73	13000 ± 1480	12900 ± 1460	39600 ± 4730	6	3.1 ± 3.4	0.3 ± 0.1	0.3 ± 0.1
COc1ccc(Cl)cc1C(=O)NCCc1ccc(S(=O)(=O)NC(=O)N[C@@H]2CCCC[C@H]2C#N)cc1 [Compound 6, 5-chloro-N-(4-(N-(((1R,2R)-2-cyanocyclohexyl)carbamoyl)sulfamoyl)phenethyl)-2-methoxybenzamide]	3.44 ± 4.53	14.6 ± 19.1	4980 ± 288	4660 ± 259	11800 ± 1060	6	5.4 ± 2.1	0.7 ± 0.1	3.6 ± 4.8	37	–	–	–	–	–	–	–	–	–
COc1ccc(C#N)cc1C(=O)NCCc1ccc(S(=O)(=O)NC(=O)NC2CCCCC2)cc1 [Compound 7, 5-cyano-N-(4-(N-(cyclohexylcarbamoyl)sulfamoyl)phenethyl)-2-methoxybenzamide]	0.193 ± 0.0469	0.5 ± 0.16	28600 ± 7920	28500 ± 7930	42400 ± 8440	6	1.9 ± 0.2	1	1.1	6	–	–	–	–	–	–	–	–	–
Cc1cnc(C(=O)NCCc2ccc(S(=O)(=O)NC(=O)NC3CCCCC3)cc2)cn1 [Glipizide, reference compound]	–	–	–	–	–	–	–	–	–	230	–	–	–	–	–	–	–	–	–
